Measured values reported in patent publication US12030903B2, “Antiviral compounds” (Gilead Sciences, Inc., priority 2020, dated 2024).
Like-named read-outs stand apart in the source and are kept apart here.

Tests used:
[1] = system: Human hepatocarcinoma 7 (Huh7) cells; assay: Huh-7 CC50 (CellTiter Glo viability); format: cell-based; conditions: 48 hours
In short: (§1)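 Huh7 cells in 10% FCS DMEM plated at 1-2×10^4 per well in triplicate with graded compound doses, 0.25% DMSO throughout. Viability after 48 hours by CellTiter Glo luminescence, normalized to no-compound and no-cell controls; CC50 from curve fitting.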

[2] = system: Dengue serotype 2 New Guinea C (NGC) strain; assay: DENV-2 Huh-7 EC50 (qPCR of viral RNA in infected Huh7 cells); format: cell-based; conditions: MOI=0.1, 48 hours
In short: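 Huh7 cells were infected 2 h at 37 °C with DENV-2 NGC at MOI 0.1, then plated with graded compound doses (0.25% DMSO) in triplicate for 48 h. Viral RNA was quantified by duplex TaqMan qPCR against GAPDH. EC50 was normalized to positive and no-compound controls.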

RSV strain A2 = assay: RSV HEp-2 EC50 (infectious cytopathic cell protection assay); format: cell-based, RSV strain A2; HEp-2 cells; conditions: read-out: RSV Hep-2 EC50
In short: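 HEp-2 cells (50,000/mL) infected with titered RSV stock, added onto compound in 3-fold serial dilutions; 4 days at 37 °C. Cell viability read by CellTiter-Glo luminescence; percent inhibition of virus-induced cytopathic effect derived from remaining viability against 0% and 100% inhibition controls.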

uninfected HEp-2 cells = assay: HEp-2 CC50 (cytotoxicity in uninfected HEp-2 cells); format: cell-based; conditions: 4 days, CellTiter Glo
Description: (§2) Instead, an uninfected cell mixture at the same density is added at 20 uL/well to plates containing prediluted compounds, also at 100 nL/sample. Assay plates are then incubated for 4 days followed by a cell viability test using the same CellTiter Glo reagent addition and measurement of luminescent readouts. Untreated cell and cells treated at 2 μM puromycin (Sigma, St. Louis, MO) serve as 100% and 0% cell viability control, respectively.

[3] = system: Human monocyte-derived dendritic cells (moDCs); assay: moDC CC50 (CellTiter Glo viability); format: cell-based; conditions: uninfected moDCs, 48 hours
Description: (§3) Human monocyte-derived dendritic cells (moDCs) were derived from CD14+ monocytes (AllCells) cultured in Human Mo-DC Differentiation medium containing GM-CSF and IL-4 (Miltenyi Biotec). On day 7, moDCs were harvested by mechanical disruption, washed and cultured in triplicate at […] cells/well in 96-well plates with compounds dispensed at graded doses (Hewlett-Packard D300 Digital Dispenser). All wells were normalized to 0.25% DMSO. After 48 hours, CellTiter Glo (Promega) was added and incubated for 10 minutes at room temp before reading on a luminometer. % viability curves were calculated against no compound and no cell control wells. CC50 values were determined using Prism Graphpad software.

[4] = system: Dengue 2, New Guinea strain (NGC); assay: DENV-2 moDC EC50 (qPCR of viral RNA in infected moDCs); format: cell-based, New Guinea strain (NGC); human moDCs; conditions: human moDCs infected with Dengue 2 NGC, MOI=0.1, 48 hours
Description: Example 82. DENV-2 moDC EC50
Human monocyte-derived dendritic cells (moDCs) were derived from CD14+ monocytes (AllCells) cultured in Human Mo-DC Differentiation medium containing GM-CSF and IL-4 (Miltenyi Biotec). On day 7, moDCs were harvested by mechanical disruption, washed and suspended in serum-free RPMI. moDCs were infected with Vero-derived Dengue 2, New Guinea strain (NGC) at a MOI=0.1 for two hours in serum-free RPMI with gentle agitation at 37° C. Cells were washed and resuspended in 10% serum-containing RPMI (Gibco, supplemented with sodium pyruvate, NEAA, Penicillin-Streptomycin). […] were plated in triplicate in 96-well plates with compounds dispensed at graded doses (Hewlett-Packard D300 Digital Dispenser). All wells were normalized to 0.25% DMSO. At 48 hours, cells were washed with 1×PBS and all supernatants removed. Total RNA was extracted using RNEasy 96 plates (Qiagen) and used to generate first-strand cDNA using XLT cDNA 5× Supermix (QuantaBio). cDNA was used as a template in a Taqman qPCR duplex reaction specific to DENV2 viral and GAPDH gene expression. EC50 values were determined using Prism Graphpad software, with normalization to a positive control and no compound negative control wells.

[5] = moDC CC50 (CellTiter Glo viability); format: cell-based, Human; conditions: human, uninfected moDCs
Description: as §3

[6] = Huh-7 CC50 (CellTiter Glo viability); format: cell-based, Human; conditions: human, Huh7 hepatocarcinoma cells
In short: as §1

[7] = HEp-2 CC50 (cytotoxicity in uninfected HEp-2 cells); format: cell-based; conditions: human, CellTiter Glo
Description: as §2

[8] = Huh7 cells infected with Dengue serotype 2 NGC
[9] = HEp-2 cells infected with RSV A2, 4 days, Cell TiterGlo
[10] = Dengue virus, DENV2, Huh-7, Huh7 cells infected with Dengue serotype 2 NGC
[11] = human respiratory syncytial virus, HEp-2, 96 h

SMILES | CC50 [1] | EC50 [2, 8] | EC50 (RSV strain A2; [9]) | CC50 (uninfected HEp-2 cells) | CC50 [3] | EC50 [4] | CC50 at 48 h [5] | EC50 ([4]; Dengue virus) | CC50 at 48 h [6] | EC50 [2, 10] | EC50 (RSV strain A2; [11]) | CC50 at 4 days [7]
CCOC(=O)[C@H](C)NP(=O)(OC[C@@]1(CF)O[C@@H](c2ccc3c(N)ncnn23)[C@H](O)[C@@H]1O)Oc1ccc(C(C)(C)C)cc1 (single isomer, unassigned) [Example 48] | 15400 nM | 390 nM | 215 nM | 30200 nM | – | – | – | – | – | – | – | –
CCOC(=O)[C@H](C)NP(=O)(OC[C@@]1(CF)O[C@@H](c2ccc3c(N)ncnn23)[C@H](O)[C@@H]1O)Oc1ccc(C(C)(C)C)cc1 (single isomer, unassigned) [Example 49] | > 25000 nM | 334 nM | 225 nM | > 100000 nM | – | – | – | – | – | – | – | –
C[C@H](NP(=O)(OC[C@@]1(CF)O[C@@H](c2ccc3c(N)ncnn23)[C@H](O)[C@@H]1O)Oc1ccccc1)C(=O)OCC(C)(C)C(F)(F)F (single isomer, unassigned) [Example 54] | > 25000 nM | 409 nM | 180 nM | > 100000 nM | 3260 nM | 241 nM | – | – | – | – | – | –
C[C@H](NP(=O)(OC[C@@]1(CF)O[C@@H](c2ccc3c(N)ncnn23)[C@H](O)[C@@H]1O)Oc1ccccc1)C(=O)OCC(C)(C)C(F)(F)F (single isomer, unassigned) [Example 55] | > 25000 nM | 611 nM | 150 nM | > 100000 nM | 4180 nM | 103 nM | – | – | – | – | – | –
CC(=O)O[C@H]1[C@H](c2ccc3c(N)ncnn23)O[C@](CF)(COP(=O)(N[C@@H](C)C(=O)OC2CCCCC2)Oc2ccccc2)[C@H]1OC(C)=O (stereo partly drawn) [Example 15, (2R,3S,4S,5S)-5-(4-aminopyrrolo[2,1-f][1,2,4]triazin-7-yl)-2-((((((S)-1-(cyclohexyloxy)-1-oxopropan-2-yl)amino)(Phenoxy)phosphoryl)oxy)methyl)-2-(fluoromethyl)tetrahydrofuran-3,4-diyl diacetate] | > 25000 nM | 1630 nM | 1460 nM | > 50000 nM | – | – | – | – | – | – | – | –
CCC(=O)O[C@H]1[C@H](c2ccc3c(N)ncnn23)O[C@](CF)(COP(=O)(N[C@@H](C)C(=O)OC2CCCCC2)Oc2ccccc2)[C@H]1OC(=O)CC (stereo partly drawn) [Example 16, (2R,3S,4S,5S)-5-(4-aminopyrrolo[2,1-f][1,2,4]triazin-7-yl)-2-((((((S)-1-(cyclohexyloxy)-1-oxopropan-2-yl)amino)(Phenoxy)phosphoryl)oxy)methyl)-2-(fluoromethyl)tetrahydrofuran-3,4-diyl dipropionate] | 13400 nM | 736 nM | 1100 nM | 33000 nM | 3800 nM | 214 nM | – | – | – | – | – | –
CCOC(=O)[C@H](C)NP(=O)(OC[C@@]1(CF)O[C@@H](c2ccc3c(N)ncnn23)[C@H](OC(C)=O)[C@@H]1OC(C)=O)Oc1ccccc1 (stereo partly drawn) [Example 21, (2R,3S,4S,5S)-5-(4-aminopyrrolo[2,1-f][1,2,4]triazin-7-yl)-2-((((((S)-1-ethoxy-1-oxopropan-2-yl)amino)(phenoxy)phosphoryl)oxy)methyl)-2-(fluoromethyl)tetrahydrofuran-3,4-diyl diacetate] | > 25000 nM | 3060 nM | 1780 nM | > 100000 nM | > 17300 nM | 1040 nM | – | – | – | – | – | –
CCOC(=O)[C@H](C)NP(=O)(OC[C@@]1(CF)O[C@@H](c2ccc3c(N)ncnn23)[C@H](OC(=O)CC)[C@@H]1OC(=O)CC)Oc1ccccc1 (stereo partly drawn) [Example 25, (2R,3S,4S,5S)-5-(4-aminopyrrolo[2,1-f][1,2,4]triazin-7-yl)-2-((((((S)-1-ethoxy-1-oxopropan-2-yl)amino)(Phenoxy)phosphoryl)oxy)methyl)-2-(fluoromethyl) tetrahydrofuran-3,4-diyl dipropionate] | > 25000 nM | 291 nM | 919 nM | 70000 nM | – | 213 nM | – | – | – | – | – | –
CCC(=O)O[C@H]1[C@H](c2ccc3c(N)ncnn23)O[C@](CF)(COP(=O)(N[C@@H](C)C(=O)OC)Oc2ccccc2)[C@H]1OC(=O)CC (stereo partly drawn) [Example 33, (2R,3S,4S,5S)-5-(4-aminopyrrolo[2,1-f][1,2,4]triazin-7-yl)-2-(fluoromethyl)-2-((((((S)-1-methoxy-1-oxopropan-2-yl)amino)(phenoxy)phosphoryl)oxy)methyl)tetrahydrofuran-3,4-diyl dipropionate] | > 25000 nM | 811 nM | 1220 nM | 43300 nM | – | – | – | – | – | – | – | –
CCCCCOC(=O)[C@H](C)NP(=O)(OC[C@@]1(CF)O[C@@H](c2ccc3c(N)ncnn23)[C@H](O)[C@@H]1O)Oc1ccccc1 (stereo partly drawn) [Example 59, pentyl ((((2R,3S,4R,5S)-5-(4-aminopyrrolo[2,1-f][1,2,4]triazin-7-yl)-2-(fluoromethyl)-3,4-dihydroxytetrahydrofuran-2-yl)methoxy)(phenoxy)phosphoryl)-L-alaninate] | – | – | – | – | – | – | 7040 nM | 62 nM | 11300 nM | 153 nM | 298 nM | 45100 nM
CCCC(CCC)COC(=O)[C@H](C)NP(=O)(OC[C@@]1(CF)O[C@@H](c2ccc3c(N)ncnn23)[C@H](O)[C@@H]1O)Oc1ccccc1 (stereo partly drawn) [Example 68, 2-propylpentyl ((((2R,3S,4R,5S)-5-(4-aminopyrrolo[2,1-f][1,2,4]triazin-7-yl)-2-(fluoromethyl)-3,4-dihydroxytetrahydrofuran-2-yl)methoxy)(phenoxy)phosphoryl)-L-alaninate] | – | – | – | – | – | – | 6260 nM | 169 nM | > 25000 nM | 278 nM | 141 nM | > 100000 nM
CC(C)COC(=O)[C@H](C)NP(=O)(OC[C@@]1(CF)O[C@@H](c2ccc3c(N)ncnn23)[C@H](O)[C@@H]1O)Oc1ccccc1 (stereo partly drawn) [Example 70, isobutyl ((((2R,3S,4R,5S)-5-(4-aminopyrrolo[2,1-f][1,2,4]triazin-7-yl)-2-(fluoromethyl)-3,4-dihydroxytetrahydrofuran-2-yl)methoxy)(phenoxy)phosphoryl)-L-alaninate] | – | – | – | – | – | – | 3570 nM | 190 nM | 10600 nM | 245 nM | 212 nM | 69400 nM
C[C@H](NP(=O)(OC[C@@]1(CF)O[C@@H](c2ccc3c(N)ncnn23)[C@H](O)[C@@H]1O)Oc1ccccc1)C(=O)OC1CCC1 (stereo partly drawn) [Example 71, cyclobutyl ((((2R,3S,4R,5S)-5-(4-aminopyrrolo[2,1-f][1,2,4]triazin-7-yl)-2-(fluoromethyl)-3,4-dihydroxytetrahydrofuran-2-yl)methoxy)(phenoxy)phosphoryl)-L-alaninate] | – | – | – | – | – | – | 8800 nM | 143 nM | 13000 nM | 298 nM | 290 nM | > 100000 nM
